Test system: vaginal proteome (human proteins in vaginal fluid)
Assay: MS/MS proteomic analysis of vaginal fluid pools, BV-affected women before (BV) and after rifaximin/placebo treatment: human proteins
Assay type: in vivo
Settings: for Ratio: BV/R, Alpha-1-acid glycoprotein 1 / Ratio: BV/R, Alpha-1-acid glycoprotein 2 / Ratio: BV/R, Calcium-activated chloride channel regulator 4 / Ratio: BV/R, Catalase / Ratio: BV/R, Desmocollin-2 / Ratio: BV/R, Galectin-3-binding protein / Ratio: BV/R, Hemopexin / Ratio: BV/R, Ig mu chain C region / Ratio: BV/R, Immunoglobulin J chain / Ratio: BV/R, Keratin, type I cytoskeletal 10 / Ratio: BV/R, Keratin, type II cytoskeletal 1 / Ratio: BV/R, Keratin, type II cytoskeletal 2 epidermal / Ratio: BV/R, Keratin, type II cytoskeletal 5 / Ratio: BV/R, Lymphocyte-specific protein 1 / Ratio: BV/R, Myeloblastin / Ratio: BV/R, Neutrophil gelatinase-associated lipocalin / Ratio: BV/R, Perilipin-3 / Ratio: BV/R, Periplakin / Ratio: BV/R, Protein S100-A7 / Ratio: BV/R, Protein S100-A9 / Ratio: BV/R, Small proline-rich protein 3 / Ratio: BV/R, Superoxide dismutase [Cu—Zn] / Ratio: BV/R, Vitamin D-binding protein: vaginal fluid
Description: Proteomic analysis was performed on 9 pools of vaginal isolates, grouped according to the status of the BV infection: • H pool (from 41 healthy women); BV pool (from 39 BV-affected women); • A-R pool (from 2 women who were in remission after rifaximin treatment-group A); • A-N pool (from 8 women who were not in remission after rifaximin treatment-group A); • B-R pool (from 5 women who were in remission after rifaximin treatment-group B); • B-N pool (from 5 women who were not in remission after rifaximin treatment-group B); • C-R pool (from 4 women who were in remission after rifaximin treatment-group C); • C-N (from 5 women who were not in remission after rifaximin treatment-group C); • D-N (from 10 women who were not in remission after placebo treatment-group D). Scheme of the vaginal fluids collected for testing the diagnostic method is represented in FIG. 1.
In these figures are reported the peptides in the fractionated pools of healthy women, women affected by BV and peptides of women treated with rifaximin. The treatment with rifaximin was at dosage of 100 mg/day for 5 days; (remission, A-R; no remission, A-N), 25 mg/5 days (remission, B-R; no remission, B-N), 100 mg/2 days (remission, C-R; no remission, C-N), and placebo for 5 days (D-N). Two types of comparisons were carried out: (i) between fractionated pools of proteins from vaginal fluid of healthy women (HF) versus fractionated pool of proteins from vaginal fluid of women affected by bacterial vaginosis (BVF); (ii) between whole pools of proteins from vaginal fluid of women affected by BV treated by administering different doses of rifaximin or placebo before (BV) and after (A-R, A-N, B-R, B-N, C-R, C-N, D-N) treatment. Fractioned pools of proteins are obtained, e.g., by separating the proteins by separation on membrane filtration with different membrane porosity, prior to MS/MS analysis.
Nine volumes of acetone: HCl (10:1) were added to the supernatant of the vaginal rinsing and proteins were precipitated by centrifuging at 12000 g for 10 min. The protein pellet was dissolved in 1 mL of 70% ethanol and the sample was spun at 12000 g for 10 min. One mL of acetone was added and the proteins were further precipitated by centrifugation at 12000 g for 5 min. After removing supernatant, pellet was dried by SpeedVac concentrator (Thermo Savant ISS110, Thermo Fisher Scientific, Waltham, Mass.) and then stored at −20° C.
Protein extract was quantified using the 2-D Quant Kit (GE Healthcare, Uppsala, Sweden) according to the manufacturer's instructions.
Patients who were diagnosed for BV at the study visit V1 were included in a multicentre, double-blind, randomised, placebo-controlled study (EudraCT: 2009-011826-32), that was performed to compare the efficacy of different doses of rifaximin vaginal tablets versus placebo for the treatment of BV. The patients underwent a randomisation visit and were distributed into 4 treatment groups: group A received 100 mg rifaximin vaginal tablet once daily for 5 days (n=10), group B received 25 mg rifaximin vaginal tablet once daily for 5 days (n=10), group C received 100 mg rifaximin vaginal tablet once daily for the first 2 days and placebo vaginal tablet for the remaining 3 days (n=9), group D received placebo vaginal tablet once daily for 5 days (n=10). Study medication was administered intra-vaginally at bedtime. After 7 to 10 days from the end of the therapy a follow-up visit (V3) was performed. Remission was evaluated at V3 according to Amsel's criteria (<3) and Gram stain Nugent score (≦3) (Table 1).
Standardized vaginal rinsings with 2 mL of saline were collected for analysis at V1 and V3 by flushing and re-aspirating the fluid through a 22 Gauge needle in the left, central and right upper vaginal vaults. The vaginal rinsings were subsequently stored at −80° C. until use.
MS/MS analysis was carried out for H and BV pools and for the whole BV, A-R, A-N, B-R, B-N, C-R, C-N and D-N pools containing 50 μg of protein each. […]

[1] = A-R pool (100 mg × 5 days, in remission) vs BV pool before treatment
[2] = B-R pool (25 mg × 5 days, in remission) vs BV pool before treatment
[3] = B-R pool (25 mg × 5 days, remission) vs BV pool
[4] = B-R pool vs BV pool, differentially expressed only in B-R
[5] = C-R pool (100 mg × 2 days, in remission) vs BV pool before treatment

With `CO[C@H]1/C=C/O[C@@]2(C)Oc3c(C)c(O)c4c(O)c(c5c(nc6cc(C)ccn65)c4c3C2=O)NC(=O)/C(C)=C\C=C\[C@H](C)[C@H](O)[C@@H](C)[C@@H](O)[C@@H](C)[C@H](OC(C)=O)[C@@H]1C` [rifaximin] the “Ratio: BV/R, Alpha-1-acid glycoprotein 1” value [1] was 2.3, the “Ratio: BV/R, Alpha-1-acid glycoprotein 2” value [1] was 1.5 and the “Ratio: BV/R, Calcium-activated chloride channel regulator 4” value [1] was 2.9. For the same compound, the “Ratio: BV/R, Catalase” value [1] was 0.0, the “Ratio: BV/R, Desmocollin-2” value [1] was −1.5 and the “Ratio: BV/R, Galectin-3-binding protein” value [1] was 3.6. For the same compound, the “Ratio: BV/R, Hemopexin” value [1] was 1.9, the “Ratio: BV/R, Ig mu chain C region” value [1] was 1.8 and the “Ratio: BV/R, Immunoglobulin J chain” value [1] was −1.5. For the same compound, the “Ratio: BV/R, Keratin, type I cytoskeletal 10” value (“Ratio … type I cytoskeletal 10” below) [1] was −2.8, the “Ratio: BV/R, Keratin, type II cytoskeletal 1” value (from here on “Ratio … type II cytoskeletal 1”) [1] was −3.9 and the “Ratio: BV/R, Keratin, type II cytoskeletal 2 epidermal” value [1] was −4.3. The “Ratio: BV/R, Keratin, type II cytoskeletal 5” value (shortened to “Ratio … type II cytoskeletal 5”) [1] was −16.3, the “Ratio: BV/R, Lymphocyte-specific protein 1” value [1] was −2.8 and the “Ratio: BV/R, Myeloblastin” value [1] was 0.0. The “Ratio: BV/R, Neutrophil gelatinase-associated lipocalin” value [1] was 0.0, the “Ratio: BV/R, Perilipin-3” value [1] was −1.7 and the “Ratio: BV/R, Periplakin” value [1] was −3.6. The “Ratio: BV/R, Protein S100-A7” value [1] was 19.2, the “Ratio: BV/R, Protein S100-A9” value [1] was 4.2 and the “Ratio: BV/R, Small proline-rich protein 3” value [1] was −6.6. The “Ratio: BV/R, Superoxide dismutase [Cu—Zn]” value (“Ratio: BV/R … [Cu—Zn]” below) [1] was 1.8, the “Ratio: BV/R, Vitamin D-binding protein” value [1] was 1.7 and the “number of differentially expressed human proteins” value (B-N pool vs BV pool) was 155. The “Ratio: BV/R, Alpha-1-acid glycoprotein 1” value [2] was 7.8, the “Ratio: BV/R, Alpha-1-acid glycoprotein 2” value [2] was 19.5 and the “Ratio: BV/R, Calcium-activated chloride channel regulator 4” value [2] was 0.0. For the same compound, the “Ratio: BV/R, Catalase” value [2] was 4.0, the “Ratio: BV/R, Desmocollin-2” value [2] was −2.0 and the “Ratio: BV/R, Galectin-3-binding protein” value [2] was 2.7. The “Ratio: BV/R, Hemopexin” value [2] was 9.0, the “Ratio: BV/R, Ig mu chain C region” value [2] was 8.1 and the “Ratio: BV/R, Immunoglobulin J chain” value [2] was −4.1. The “Ratio … type I cytoskeletal 10” value [2] was −3.5, the “Ratio … type II cytoskeletal 1” value [2] was −6.2 and the “Ratio: BV/R, Keratin, type II cytoskeletal 2 epidermal” value [2] was −7.1. The “Ratio … type II cytoskeletal 5” value [2] was −12.7, the “Ratio: BV/R, Lymphocyte-specific protein 1” value [2] was −3.2 and the “Ratio: BV/R, Myeloblastin” value [2] was 3.1. For the same compound, the “Ratio: BV/R, Neutrophil gelatinase-associated lipocalin” value [2] was −1.5, the “Ratio: BV/R, Perilipin-3” value [2] was −2.9 and the “Ratio: BV/R, Periplakin” value [2] was −3.4. For the same compound, the “Ratio: BV/R, Protein S100-A7” value [2] was 5.7, the “Ratio: BV/R, Protein S100-A9” value [2] was 2.6 and the “Ratio: BV/R, Small proline-rich protein 3” value [2] was −6.6. The “Ratio: BV/R … [Cu—Zn]” value [2] was 1.5, the “Ratio: BV/R, Vitamin D-binding protein” value [2] was 17.8 and the “expression change of Kininogen-1” value [3] was −88.6 ratio. The “expression change of Prostate stem cell antigen” value [3] was 63.8 ratio, the “expression change of Stanniocalcin-1” value [3] was 113.1 ratio and the “number of differentially expressed human proteins” value (B-R pool vs BV pool) was 214. For the same compound, the “expression change of Ig heavy chain V-III region BUT” value [4] was −1.6 ratio, the “expression change of Ig heavy chain V-III region VH26” value [4] was −1.5 ratio and the “expression change of Kallikrein-13” value [4] was 1.5 ratio. For the same compound, the “expression change of Neutrophil gelatinase-associated lipocalin” value [4] was 1.5 ratio, the “expression change of Zinc-alpha-2-glycoprotein” value [4] was −9.4 ratio and the “Ratio: BV/R, Alpha-1-acid glycoprotein 1” value [5] was 0.0. The “Ratio: BV/R, Alpha-1-acid glycoprotein 2” value [5] was −1.9, the “Ratio: BV/R, Calcium-activated chloride channel regulator 4” value [5] was 1.8 and the “Ratio: BV/R, Catalase” value [5] was 2.3. The “Ratio: BV/R, Desmocollin-2” value [5] was 0.0, the “Ratio: BV/R, Galectin-3-binding protein” value [5] was 0.0 and the “Ratio: BV/R, Hemopexin” value [5] was 1.7. The “Ratio: BV/R, Ig mu chain C region” value [5] was 0.0, the “Ratio: BV/R, Immunoglobulin J chain” value [5] was −2.2 and the “Ratio … type I cytoskeletal 10” value [5] was 0.0. The “Ratio … type II cytoskeletal 1” value [5] was −2.3, the “Ratio: BV/R, Keratin, type II cytoskeletal 2 epidermal” value [5] was 0.0 and the “Ratio … type II cytoskeletal 5” value [5] was −2.5. The “Ratio: BV/R, Lymphocyte-specific protein 1” value [5] was 0.0, the “Ratio: BV/R, Myeloblastin” value [5] was 4.0 and the “Ratio: BV/R, Neutrophil gelatinase-associated lipocalin” value [5] was 0.0. The “Ratio: BV/R, Perilipin-3” value [5] was −2.3, the “Ratio: BV/R, Periplakin” value [5] was −2.0 and the “Ratio: BV/R, Protein S100-A7” value [5] was 2.5. For the same compound, the “Ratio: BV/R, Protein S100-A9” value [5] was 0.0, the “Ratio: BV/R, Small proline-rich protein 3” value [5] was −4.4 and the “Ratio: BV/R … [Cu—Zn]” value [5] was 0.0.

Reference: patent US20160047819A1, “METHOD FOR DIAGNOSING VAGINAL INFECTIONS” (priority 2013, published 2016)
